Experimental data reported in the supplement of paper PMC8253809.

What was measured:
HGGX42 = H3.3 G34R paediatric high-grade glioma line; experiment: maximal growth inhibition (yFin) relative to DMSO / staurosporine; higher = more efficacious
In short: (§1)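 Patient-derived pHGG/DIPG cell lines and astrocyte controls were plated in 384-well plates coated with 1% Geltrex and dosed by pin tool with a 10-point threefold dilution series (mean top concentration 35 μM), in triplicate. Cells were exposed for 7 days (3 days for iAstro) at 37 °C and 5% CO2. CellTiter-Glo luminescence was log2-transformed, normalised per plate to % activity between negative (solvent) and positive control wells, and pooled. EC50 and maximal response (yFin) were taken from whichever three- or four-parameter log-logistic fit had the lowest AICc.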

DIPGX29 = H3.3 K27M diffuse intrinsic pontine glioma line; experiment: as above
In short: as §1

HGGX2 = paediatric high-grade glioma line; experiment: as above
In short: as §1

SUDIPGXXI = diffuse intrinsic pontine glioma line; experiment: as above
In short: as §1

HABS = astrocyte control; experiment: as above
In short: as §1

SUDIPGXIX = diffuse intrinsic pontine glioma line; experiment: as above
In short: as §1

HGGX6 = H3.3 G34R paediatric high-grade glioma line; experiment: as above
In short: as §1

SUDIPGIV = diffuse intrinsic pontine glioma line; experiment: as above
In short: as §1

HGGX39 = paediatric high-grade glioma line; experiment: as above
In short: as §1

SUDIPGXIII = diffuse intrinsic pontine glioma line; experiment: as above
In short: as §1

DIPGX37 [1] = H3.3 K27M diffuse intrinsic pontine glioma line; experiment: as above
In short: as §1

iAstro = astrocyte control; experiment: as above
In short: as §1

DIPGX7 = H3.3 K27M diffuse intrinsic pontine glioma line; experiment: as above
In short: as §1

SUDIPGXVII = diffuse intrinsic pontine glioma line; experiment: as above
In short: as §1

SUDIPGVI = diffuse intrinsic pontine glioma line; experiment: as above
In short: as §1

DIPGX9 = diffuse intrinsic pontine glioma line; experiment: as above
In short: as §1

DIPGX37 [2] = experiment: EC50 (inflection of fitted growth-inhibition curve) (log10 M)
In short: as §1

SMILES | maximal growth inhibition (HGGX42) | maximal growth inhibition (DIPGX29) | maximal growth inhibition (HGGX2) | maximal growth inhibition (SUDIPGXXI) | maximal growth inhibition (HABS) | maximal growth inhibition (SUDIPGXIX) | maximal growth inhibition (HGGX6) | maximal growth inhibition (SUDIPGIV) | maximal growth inhibition (HGGX39) | maximal growth inhibition (SUDIPGXIII) | maximal growth inhibition (DIPGX37 [1]) | maximal growth inhibition (iAstro) | maximal growth inhibition (DIPGX7) | maximal growth inhibition (SUDIPGXVII) | maximal growth inhibition (SUDIPGVI) | maximal growth inhibition (DIPGX9) | EC50 (log10 M) (DIPGX37 [2])
CC(=O)c1cc([N+](=O)[O-])c(Sc2ccc(F)cc2F)s1 | 108% | 115% | 106% | 113% | 37.7% | 118% | 104% | 104% | 24.6% | 104% | 112% | 89.1% | 117% | 74.3% | 94.1% | 109% | -4.79
CC(C)(C)c1cnc(CSc2cnc(NC(=O)C3CCNCC3)s2)o1 | 87.2% | 84% | 57% | 110% | 45.9% | 116% | 83.9% | 103% | 84.8% | 92.1% | 86.8% | 27.2% | 113% | 95.8% | 82.8% | 104% | -6.21
CC(C)c1c2cc(-c3ccnc(NC4CCC(NC5CCOCC5)CC4)n3)ccc2nn1C (centres undefined) | 82% | 84.4% | 75.2% | 99.9% | 44.3% | 91.6% | 78% | 90.4% | 83.2% | 89.3% | 81.2% | 26.6% | 93.3% | 89.7% | 84% | 89.5% | -6.77
CC(C)c1cc(C(=O)N2Cc3ccc(CN4CCN(C)CC4)cc3C2)c(O)cc1O | 65% | 105% | 54.4% | 105% | 108% | 77.2% | 34.9% | 56.5% | 105% | 51.9% | 92.6% | 31.4% | 78.3% | 67.2% | 51.6% | 94.9% | -6.85
COc1cc(F)ccc1-c1ncnc(Nc2cccc(CS(C)(=N)=O)c2)n1 (centres undefined) | 67% | 78.9% | 57.3% | 114% | 56.8% | 100% | 84.1% | 97.4% | 68% | 87% | 76.2% | 24.7% | 110% | 94.9% | 89.8% | 103% | -5.68
Cc1ccc2nc(NCCN)c3ncc(C)n3c2c1 | 83.9% | 88.2% | 45.5% | 117% | 58.1% | 85.2% | 81.8% | 91.6% | 57.7% | 73.5% | 86.6% | 26.6% | 92.7% | 88.5% | 70.6% | 98.5% | -4.96
O=C(c1ccccc1)c1ccc2nc(NC(=O)c3csc(C4CCN(c5ncnc6ccsc56)CC4)n3)[nH]c2c1 | 48.7% | 62.1% | 51.9% | 111% | 35.8% | 112% | 36% | 27.7% | 29.6% | 50.1% | 38.4% | 64.8% | 89.8% | 28.2% | 45.9% | 44.1% | -5.87
c1ccc2c(-c3cnn4cc(-c5ccc(N6CCNCC6)cc5)cnc34)ccnc2c1 | 102% | 95.2% | 104% | 119% | 108% | 113% | 92.8% | 107% | 88.9% | 105% | 99% | 93.5% | 106% | 107% | 105% | 108% | -5.65
COc1ccc(C[C@H](NC(=O)[C@H](C)NC(=O)CN2CCOCC2)C(=O)N[C@@H](Cc2ccccc2)C(=O)C2(C)CO2)cc1 (stereo in doubt) [ONX-0914] | 68% | 71.9% | 87.4% | 93.9% | 94.2% | 95% | 92.2% | 89.7% | 91.9% | 89.5% | 95.7% | 73.5% | 97.5% | 91.8% | 85.8% | 96.9% | -6.53
CN(C)C/C=C/C(=O)Nc1cc2c(Nc3ccc(F)c(Cl)c3)ncnc2cc1O[C@H]1CCOC1 [AFATINIB] | 108% | 91.2% | 109% | 120% | 101% | 120% | 93.5% | 111% | 93.2% | 92.1% | 95.5% | 92.5% | 110% | 109% | 111% | 118% | -4.72
O=C(Nc1c[nH]nc1-c1nc2ccc(CN3CCOCC3)cc2[nH]1)NC1CC1 [AT9283] | 104% | 108% | 96.7% | 114% | 94% | 112% | 97.8% | 99.7% | 91.6% | 97.8% | 107% | 27.5% | 110% | 102% | 101% | 109% | -4.79
CC(=O)OC[C@H]1O[C@@H]([S-])[C@H](OC(C)=O)[C@@H](OC(C)=O)[C@@H]1OC(C)=O.CCP(CC)CC.[Au+] [AURANOFIN] | 116% | 93.1% | 110% | 122% | 113% | 118% | 92.2% | 117% | 107% | 113% | 90.9% | 106% | 119% | 117% | 114% | 118% | -6.41
